Results from patent US20050100595A1, “Methods for micronization of hydrophobic drugs” (Brown University Research Foundation, priority 2001, published 2005).

Experiments:
[1] = Dicumarol loading by NaOH extraction; type: physicochemical; settings: dicumarol content by NaOH extraction
Protocol: 100 mg p(FA:SA) 17:83 was dissolved in this solution by sonicating for an additional 30 s. The resultant solution was dispersed into 1.0 L petroleum ether and the precipitate was collected using a 100 nm filter composed of mixed-cellulose esters. The microsphere formulation was then frozen and lyophilized for 24 hours. The dicumarol loading was determined in this formulation by a simple extraction protocol. Microspheres were incubated overnight in 2.5 N NaOH at 37° C. Upon dissolution, an aliquot of approximately 15 μg based on theoretical loading was added to 2.5 N NaOH to make a total volume of 800 μL. This mixture was agitated for 2 minutes and centrifuged for 2 minutes at 11,269 g.
The dicumarol loading was determined in all formulations by a simple extraction protocol. Microspheres were incubated overnight in 2.5 N NaOH at 37° C. Upon dissolution, an aliquot of approximately 15 μg based on theoretical loading was added to 2.5 N NaOH to make a total volume of 800 μL. This mixture was agitated for 2 minutes and centrifuged for 2 minutes at 11,269 g.

[2] = in vivo; settings: rat, 25 mg/kg
Source text: Rats were anesthetized using isoflurane gas.
Non-compartmental pharmacokinetics were assumed.

[3] = Scanning electron microscopy of dicumarol formulations; type: physicochemical
Protocol: Scanning Electron Microscopy: All samples were sputter-coated with an Au—Pd target for 3.5 minutes and spread out on a carbon-backed adhesive disc on top of the SEM stub. The Hitachi 2700 was used to visualize the samples at an accelerating voltage of 8 kV.

[4] = Coulter particle size analysis (laser-light diffractometry, volume statistics); type: physicochemical
Protocol: A 250 μg/mL suspension of microspheres in 1% pluronic F127 [poly(ethylene oxide)-b-poly(propylene oxide)-b-poly(ethylene oxide)]/1% hydroxypropylmethylcellulose (HPMC) was introduced into the small volume fluid module. Only the Coulter output based on volume measurements was used for analysis.

SMILES: O=c1oc2ccccc2c(O)c1Cc1c(O)c2ccccc2oc1=O [Stock, Dicumarol]
- Loading (drug loading) [1]: 100%
- bioavailability ([2]; male, Sprague-Dawley): 90.1 ± 7.3%
- Cmax ([2]; male, Sprague-Dawley, po): 73 ± 6 µg/mL
- Tmax ([2]; male, Sprague-Dawley, po): 14 ± 2 h
- plasma concentration reached (peak of plasma curve) ([2]; male, Sprague-Dawley, po): 64 µg/mL
- time after which the peak of the plasma curve was reached ([2]; male, Sprague-Dawley, po): 3 h
- AUC ([2]; po): 2666 ± 206 µg·h/mL
- particle size seen in SEM micrographs ([3]; FIG. 1): 10-20 microns
- particle size seen in SEM micrographs ([3]; FIG. 7A): approximately 25 μm
- mean particle diameter ([4]; based on volume statistics): 18.5 μm
- Coulter Particle Analysis 25% < ([4]; volume calculations, 25% of population less than this size): 12.98 μm
- Coulter Particle Analysis 50% < ([4]; volume calculations, 50% of population less than this size): 18.95 μm
- Coulter Particle Analysis 75% < ([4]; volume calculations, 75% of population less than this size): 24.82 μm
